The NIST ThermoML archive (doi:10.1016/j.fluid.2006.07.007)
Numbers after ± are expanded uncertainties.

Details: Liquid, Ebulliometric method (Recirculating still)

CCO [ethanol]
Details	vapor or sublimation pressure [kPa]
292.33 K	5.593 ± 0.048
303.83 K	10.86 ± 0.06
311.14 K	16.15 ± 0.091
317.9 K	22.84 ± 0.12
323.09 K	29.41 ± 0.15
326.8 K	35.11 ± 0.18
330.56 K	41.76 ± 0.21
333.94 K	48.61 ± 0.24
337.18 K	56.06 ± 0.27
339.97 K	63.2 ± 0.3
342.3 K	69.73 ± 0.31
